In PubChem BioAssay AID504867 (The Scripps Research Institute Molecular Screening Center, 2011):

Target: Sphingosine 1-phosphate receptor 5 (Homo sapiens) (UniProt Q9H228)
Assay: activation of human S1P5 receptor – cell-based, fluorescence, set 2, counter-screen for S1P4 agonist project, late-stage follow-up (AID 504867)
Settings: S1P5 agonist cell assay, fluorescence read-out

Sequence of Sphingosine 1-phosphate receptor 5 (Homo sapiens) (Q9H228 whole entry, looked up): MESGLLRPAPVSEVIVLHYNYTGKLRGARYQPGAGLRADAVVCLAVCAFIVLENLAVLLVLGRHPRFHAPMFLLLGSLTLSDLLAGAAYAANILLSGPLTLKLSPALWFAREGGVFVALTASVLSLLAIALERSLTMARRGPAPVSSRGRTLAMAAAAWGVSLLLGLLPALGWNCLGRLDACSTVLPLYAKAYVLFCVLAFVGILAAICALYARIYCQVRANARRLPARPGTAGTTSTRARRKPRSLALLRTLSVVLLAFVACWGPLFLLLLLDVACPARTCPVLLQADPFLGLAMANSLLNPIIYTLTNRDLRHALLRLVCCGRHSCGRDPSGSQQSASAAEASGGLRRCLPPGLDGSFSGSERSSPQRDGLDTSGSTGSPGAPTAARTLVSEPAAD

COCCN=C1S/C(=C\c2cc(C)n(-c3ccc(F)cc3F)c2C)C(=O)N1C
EC50: 2100 nM
